Laboratory results as given in EP0702551B1, “COMPOSITIONS AND METHODS FOR REPARATION AND PREVENTION OF FIBROTIC LESIONS” (MARGOLIN, Solomon B., priority 1993, dated 1994).
Values joined by “and” are separate entries in the source; they are usually repeats but may differ in a detail not shown here. Identical values can stand only once. Marks after values point to notes of the source that are not given here.

Legend:
[1] = system: Fibrosis of the ventricular myocardium; assay: Clinical human open trial, fibrosis of the ventricular myocardium; type: in vivo
Protocol: (§1) Clinical human open trials have been undertaken as follows: • 1. Pulmonary fibrosis diagnosed as caused by asbestos was treated with pirfenidone and closely and objectively followed in two subjects. […] Pulmonary fibrosis diagnosed as idiopathic in nature was treated with pirfenidone and closely and objectively followed in one subject for over two years. […] Two subjects suffered from frequency, severe nocturia, incontinence, constant urgency, and in the third these symptoms were less severe. Clinically, all had enlarged prostates that explained the symptoms. The results were dramatic in the eldest subject within two weeks of therapy. Nocturia of 6-7 trips (every 60-90 minutes) per night was reduced to 1 or 2 nightly (4-5 hours apart). In the other two patients, nocturia 3-4 times (every 2-3 hours) was reduced to once nightly 4-5 hours after retiring. […] Inhibition of excessive scar formation by direct application of pirfenidone ointment to skin lesions in 10 cases.

[2] = system: Pulmonary fibrosis; assay: Clinical human open trial, pulmonary fibrosis; type: in vivo
Protocol: as §1

[3] = system: ASBESTOS-INDUCED PULMONARY IN[…]; assay: Asbestos-induced pulmonary interstitial fibrosis in hamsters; type: in vivo
Excerpt: In hamsters, pulmonary fibrosis induced with crysotile asbestos was removed following oral pirfenidone (Table 4).
The novel role of pirfenidone in the therapeutic repair of fibrotic lung tissue featuring removal of fibrotic lesions, and concomitant regeneration of normal lung tissue has been observed in experimental asbestosis by histopathological examination of lung tissue specimens under the light microscope, and electron microscopy (Table 4).
This was subsequently confirmed by ashing of lung specimens in a laboratory oven, and then determining the asbestos content.

[4] = system: Benign prostate hypertrophy; assay: Clinical human open trial, benign prostate hypertrophy; type: in vivo
Protocol: as §1

[5] = system: CYCLOPHOSPHAMIDE-INDUCED IN[…]; assay: Cyclophosphamide-induced interstitial fibrosis in mice; type: in vivo
Excerpt: In mice, pulmonary fibrosis induced with cyclophosphamide […] and is know to produce pulmonary fibrosis in patients as a side effect.

[6] = system: fibrosis (interstitial hyperplasia); assay: Histopathological examination of rat lungs for fibrosis after three months of drug in the diet; type: in vivo; conditions: rats; for Lung Connective Tissue Score, Mean: 300 mg/kg (p.o.) in the diet for three months, score 0, 1, 2, 3 = degree of fibrosis, control mean 1.63, 300 mg/kg
Protocol: The results of a histopathological examination of the lungs of rats for fibrosis (interstitial hyperplasia) after receiving 300mg/kg body weight of pirfenidone in the diet for three months are summarized in Table 2. The individual microscopic readings of the lung are also shown in Table 2, where a score schedule of 0, 1, 2, and 3 reflects the degree of fibrosis.
The data in Table 2 reveal a statistically significant reduction in the amount of fibrosis in rats receiving pirfenidone as compared to placebo control rats (Group 1). The mean score for the controls (Group 1) was 1.63 +/-0.23, and for Group IV (pirfenidone, 300mg/kg body weight daily was 0.95 +/-0.23.
Student's T value was 2.43, with P less than 0.02 (highly significant statistically).

[7] = Acute toxicity (LD), cat; conditions: in vivo
Excerpt: The acute toxicity of the ingredient in the medical composition of the present invention which exerts the anti-fibrotic activity is as shown in the table below: […]

[8] = system: PULMONARY INTERSTITIAL HYPERPLASIA (FIBROSIS); assay: Pulmonary interstitial hyperplasia (fibrosis) in dogs, oral capsules, microscopic scoring; type: in vivo, Beagle dogs; conditions: for Hyperplasia Scores 0 (number of dogs): 0 = normal tissue; for Hyperplasia Scores 1 (number of dogs): 1 = minimal; for Hyperplasia Scores 2 (number of dogs): 2 = moderate; for Hyperplasia Scores 3 (number of dogs): 3 = severe; for Incidence of Normal Lung: control 0/9
Protocol: The mean score for Group I (Control) was 2.11 +/-0.31, and for Group IV, which received pirfenidone, 150 mg/kg per day orally in capsules, was 0.22 +/-0.19.

[9] = group average, asbestos + 500 mg/kg/day in the diet two months, asbestos only 2.75+/-0.25
[10] = individual hamsters, asbestos + 500 mg/kg/day in the diet two months, 0 = normal tissue, 1 = minimal, 2 = moderate, 3 = severe, 500 mg/kg/day
[11] = GROUP II: cyclophosphamide 200 mg/kg i.p. plus 500 mg/kg/day p.o.
[12] = 300 mg/kg (p.o.), three months, 19 animals

Cc1ccc(=O)n(-c2ccccc2)c1 [pirfenidone, 5-methyl-1-phenyl-2-(1H) pyridone]
fibrosis of the ventricular myocardium (electrocardiogram maps and nuclear resonance determinations) ([1]; one subject (diagnosed as terminal), after repeated coronary infarcts): objective evidence of the reduction of the fibrosis | survival of the subject ([1]; one subject diagnosed as terminal, drug terminated after 18 months): additional three years | Clinical impressions ([2]; pulmonary fibrosis diagnosed as caused by asbestos, two subjects): dramatic and highly favorable | Clinical impressions ([2]; pulmonary fibrosis diagnosed as idiopathic, one subject followed for over two years): highly favorable | recurrence of asbestos-induced fibrosis ([3]; after drug had been discontinued for two months): did not recur | lung cell-imbedded asbestos fibers ([3]; electron microscope, confirmed by ashing of lung specimens and asbestos content): had been removed | Lung Density, Average ([3]; group average, asbestos + 500 mg/kg/day in the diet two months, asbestos only 2.53+/-0.23): 1.17+/-0.10 | Pulmonary Fibrosis Score Electron Microscope, Average [3, 9]: 0.25+/-0.25 | Pulmonary Fibrosis Score Light Microscope, Average [3, 9]: 1.00+/-0.41 | pulmonary fibrosis induced with crysotile asbestos ([3]; hamsters, oral): removed | Pulmonary Fibrosis Score Electron Microscope [3, 10]: 0 (3×) and 1 | Pulmonary Fibrosis Score Light Microscope [3, 10]: 0 and 2 and 1 (2×) | Lung Density ([3]; individual hamsters, asbestos by inhalation 5 days, 500 mg/kg/day orally in the diet for two months, beginning two months after exposure, 500 mg/kg/day): 0.98 and 1.04 and 1.26 and 1.41 | digital examination of the prostate ([4]; all cases, in 3-4 weeks): detectable reduction in the size of the prostate | Nocturia after therapy ([4]; other two patients, before 3-4 times (every 2-3 hours)): once | clinical results ([4]; three elderly subjects (66-100 years)): very good to excellent | Lung Dry Wt. [5, 11]: 52.4+/-0.9 Mg. | Lung FIBROSIS Scores (N/N), incidence of scores 3.0 or less [5, 11]: 3/5 | Lung FIBROSIS Scores ([5]; GROUP II: cyclophosphamide 200 mg/kg i.p. plus 500 mg/kg/day p.o., scoring 0 through 6): 2.99+/-0.75 | pulmonary fibrosis induced with cyclophosphamide ([5]; mice, oral administration): removed | Lung Connective Tissue Score, Mean [6]: 0.95 +/-0.23 | Lung Connective Tissue Score, Mean ([6]; listed as PIRFENIDONE): 0.95 | Lung Connective Tissue Score 0, Total (animals) [6, 12]: 5 | Lung Connective Tissue Score 1, Total (animals) [6, 12]: 11 | Lung Connective Tissue Score 2, Total (animals) [6, 12]: 2 | Lung Connective Tissue Score 3, Total (animals) [6, 12]: 1 | LD50 ([7]; iv): 40 mg/kg | LD50 ([7]; po): 500 mg/kg | Hyperplasia Scores 0 (number of dogs) ([8]; 25 mg/kg/day oral): 1 | Hyperplasia Scores 1 (number of dogs) ([8]; 25 mg/kg/day oral): 1 | Hyperplasia Scores 2 (number of dogs) ([8]; 25 mg/kg/day oral): 4 | Hyperplasia Scores 3 (number of dogs) ([8]; 25 mg/kg/day oral): 0 | Incidence of Normal Lung ([8]; 25 mg/kg/day oral): 1/6 | Average Scores ([8]; 25 mg/kg/day oral, hyperplasia score 0-3, control 2.11+/-0.31): 1.50+/-0.34 | Hyperplasia Scores 0 (number of dogs) ([8]; 75 mg/kg/day oral): 2 | Hyperplasia Scores 1 (number of dogs) ([8]; 75 mg/kg/day oral): 2 | Hyperplasia Scores 2 (number of dogs) ([8]; 75 mg/kg/day oral): 3 | Hyperplasia Scores 3 (number of dogs) ([8]; 75 mg/kg/day oral): 1 | Incidence of Normal Lung ([8]; 75 mg/kg/day oral): 2/8 | Average Scores ([8]; 75 mg/kg/day oral, hyperplasia score 0-3, control 2.11+/-0.31): 1.38+/-0.38 | Hyperplasia Scores 0 (number of dogs) ([8]; 150 mg/kg/day oral): 7 | Hyperplasia Scores 1 (number of dogs) ([8]; 150 mg/kg/day oral): 2 | Hyperplasia Scores 2 (number of dogs) ([8]; 150 mg/kg/day oral): 0 | Hyperplasia Scores 3 (number of dogs) ([8]; 150 mg/kg/day oral): 0 | Incidence of Normal Lung ([8]; 150 mg/kg/day oral): 7/9 | Average Scores ([8]; 150 mg/kg/day orally in capsules, hyperplasia score 0-3, control 2.11+/-0.31, P<0.001, 150 mg/kg/day): 0.22 +/-0.19 | Average Scores ([8]; 150 mg/kg/day orally in capsules, hyperplasia score 0-3, control 2.11+/-0.31, P<0.001, listed as Pirfenidone, 150 mg/kg/day): 0.22+/-0.15**
